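Dose response: 5 concentrations. Exposure: 48 h. Format: 96-well plates. Endpoint: linear interpolation; highest concentration if not reached. GI50 marks 50% less growth. TGI denotes the concentration required for complete inhibition of growth.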
Legend:
Test in all cases: NCI tumour cell line growth inhibition, 48 h
A498 renal = system: A498 renal
A549 NSCLC = system: A549 NSCLC
IGROV1 ovarian = system: IGROV1 ovarian
K-562 leukemia = system: K-562 leukemia
M14 melanoma = system: M14 melanoma
SK-MEL-2 melanoma = system: SK-MEL-2 melanoma
SK-MEL-5 melanoma = system: SK-MEL-5 melanoma
SR leukemia = system: SR leukemia
SW-620 colon = system: SW-620 colon
UACC-62 melanoma = system: UACC-62 melanoma

Compound	GI50 (A498 renal)	TGI (A498 renal)	GI50 (A549 NSCLC)	TGI (A549 NSCLC)	GI50 (IGROV1 ovarian)	TGI (IGROV1 ovarian)	GI50 (K-562 leukemia)	TGI (K-562 leukemia)	GI50 (M14 melanoma)	TGI (M14 melanoma)	GI50 (SK-MEL-2 melanoma)	TGI (SK-MEL-2 melanoma)	GI50 (SK-MEL-5 melanoma)	TGI (SK-MEL-5 melanoma)	GI50 (SR leukemia)	GI50 (SW-620 colon)	TGI (SW-620 colon)	GI50 (UACC-62 melanoma)	TGI (UACC-62 melanoma)	TGI (SR leukemia)
CC(=O)[O][Hg][c]1c(N)c(C)cc(C)c1F	5.35 µM	15.8 µM	9.72 µM	28.8 µM	0.939 µM	2.79 µM	0.749 µM	4.03 µM	1.55 µM	3.29 µM	1.56 µM	3.23 µM	1.48 µM	2.88 µM	0.338 µM	1.44 µM	3.21 µM	1.5 µM	3.2 µM	
NC(CSC(c1ccccc1)(c1ccccc1)c1ccc2c(c1)OCO2)C(=O)O (stereo not drawn)	0.518 µM	30.5 µM	0.635 µM	> 100 µM	2.5 µM	> 100 µM	0.406 µM	> 100 µM	0.239 µM	0.648 µM	0.511 µM	27.4 µM	0.365 µM	5.01 µM	0.285 µM	0.396 µM	> 100 µM	0.57 µM	> 62.9 µM	0.868 µM
CC1=C(C#N)C23C(=O)c4ccccc4C(O)=C2C(=O)C=CC3(O)N1Cc1ccccc1 (stereo not drawn)	> 100 µM	> 100 µM	72.2 µM	> 100 µM	23.9 µM	72.4 µM	32.9 µM	> 100 µM	32.8 µM	> 100 µM	33 µM	> 100 µM	18 µM	61.5 µM	33.7 µM	37.1 µM	> 100 µM	47.4 µM	> 100 µM	> 100 µM
O=C(CN1CCN(c2cc3c(cc2F)c(=O)c(C(=O)N/N=C/c2ccccc2O)cn3C2CC2)CC1)N/N=C\c1ccccc1O	6.03 µM	> 100 µM	0.569 µM	> 100 µM	0.787 µM	> 100 µM	0.389 µM	> 100 µM	0.384 µM	5.02 µM	1.66 µM	> 100 µM	0.876 µM	2.95 µM	0.304 µM	0.475 µM	> 100 µM	0.758 µM	12.4 µM	> 100 µM
CC(=O)C(CN(C(C)C)C(C)C)C(c1ccccc1)c1c(O)c2ccccc2oc1=O (stereo not drawn)		> 100 µM		> 100 µM		> 100 µM		> 100 µM		> 100 µM		> 100 µM		> 100 µM			> 100 µM		> 100 µM	> 100 µM
Cc1cc(=O)n2[nH]c(-c3ccc(C(C)(C)C)cc3)cc2n1	1.54 µM	36.9 µM	11.6 µM	> 100 µM	7.36 µM	> 100 µM	6.72 µM	> 100 µM	12.7 µM	> 100 µM	10.5 µM	65.5 µM	1.82 µM	12.1 µM	8.03 µM	4.4 µM	> 100 µM	3.83 µM	> 100 µM	> 100 µM
O=C(Nc1ccc(F)cc1F)c1cc(I)ccc1O	1.45 µM	3.31 µM	3.1 µM	> 100 µM	2.4 µM	> 100 µM	3.16 µM	> 100 µM	2.21 µM	8.05 µM	2.29 µM	6.07 µM	1.7 µM	3.35 µM	3.05 µM	3.39 µM	90.7 µM	1.46 µM	4.49 µM	> 100 µM
CC1(C)COC(c2ccc(C(F)(F)F)cc2C(O)c2ccc3ccccc3c2)=N1 (stereo not drawn)	> 100 µM	> 100 µM	> 10 µM	> 100 µM	> 100 µM	> 100 µM	> 100 µM	> 100 µM	> 100 µM	> 100 µM	> 100 µM	> 100 µM	> 100 µM	> 100 µM		> 100 µM	> 100 µM	> 100 µM	> 100 µM	> 10 µM
CCOC(=O)Nc1nc2ccc(OCC)cc2s1	> 100 µM	> 100 µM	7.2 µM	> 100 µM	31.7 µM	> 100 µM	3.17 µM	> 100 µM	6.84 µM	> 100 µM	40.3 µM	> 100 µM	5.56 µM	> 100 µM	1.12 µM	4.25 µM	> 100 µM	13.4 µM	> 100 µM	> 100 µM
CCCCCCCCSC1=CC(=O)c2nc3ccccc3c3ccnc1c23	> 100 µM	> 100 µM	83.2 µM	> 100 µM	> 100 µM	> 100 µM	27.4 µM	> 100 µM	> 100 µM	> 100 µM	> 100 µM	> 100 µM	98.8 µM	> 100 µM	22.7 µM	> 100 µM	> 100 µM	42 µM	> 100 µM	> 100 µM
O=C(O)c1cc(C(=O)O)cc(N2C(=O)c3ccccc3C2=O)c1		> 100 µM		> 100 µM		> 100 µM		> 100 µM		> 100 µM		> 100 µM		> 100 µM			> 100 µM		> 100 µM	> 100 µM
COc1ccc2nc3cc(Cl)ccc3c(Sc3ccccc3[N+](=O)[O-])c2c1		> 100 µM		> 100 µM		> 100 µM		> 100 µM		> 100 µM		> 100 µM		> 100 µM			> 100 µM		> 100 µM	> 100 µM
CC1(C)OC(=O)C(=Cc2ccc(O)cc2)C(=O)O1		> 100 µM		> 100 µM		> 100 µM		> 100 µM		> 100 µM		> 100 µM		> 100 µM			> 100 µM		> 100 µM	> 100 µM
O=C1C2=C(SCCS2)C(=O)c2ccccc21		3.65 µM		3.83 µM		3.17 µM		5.14 µM		3.33 µM		4.07 µM		3.09 µM			3.68 µM		3.04 µM	5.33 µM

From PubChem BioAssay (NCI)
